{"source": "patent US20060045928A1", "about": "“Composition containing herbal medicine component for promoting absorption and production method thereof” (priority 2004, published 2006)", "origin": "cited, not measured here", "conditions": "carrot fried with oil"}
{"compound": "CC1=C(/C=C/C(C)=C/C=C/C(C)=C/C=C/C=C(C)/C=C/C=C(C)/C=C/C2=C(C)CCCC2(C)C)C(C)(C)CCC1", "note": "[β-carotene]", "values": [{"measurement": "absorption rate improvement, compared with eating raw carrot", "result": "5 to 10", "unit": "times"}]}
